US20170281732A1, “METHODS OF TREATING MILD BRAIN INJURY” (OXEIA BIOPHARMACEUTICALS, INC., priority 2014, published 2017)

How the values were obtained:
[1] = Matsumoto et al., 2001, Biochem. Biophys. Res. Commun. 284:655-659; cited from earlier work
[2] = target: GHS-R (Homo sapiens, UniProt Q92847); experiment: GHS-R antagonist activity in a cell based assay (Table 4, Exemplary GHS-R Modulating Compounds)
[3] = system: ischemic brain injury; conditions: in vivo; cited from earlier work
[4] = system: rat model of Parkinson's disease; conditions: cited from earlier work
[5] = system: oxidative burst in inflammatory cells following mBI; experiment: Oxidative burst in brain inflammatory cells following mBI (controlled cortical impact, DHR 123 flow cytometry); format: in vivo, C57/B6 mice; conditions: subcutaneous ghrelin after mBI, compared to mBI without treatment; mice
Method: Ghrelin variant administration reduces oxidative burst in inflammatory cells following mBI. Since no well-accepted animal model exists for concussions, a very small cerebral lesion that closely mimics mBI is used as a model of mBI. C57/B6 mice anesthetized with 5% isoflurane in oxygen (1.7 L/min) are given 0.3 mg/kg buprenorphine subcutaneously for analgesia prior to infliction of the mild brain injury. Anesthesia is assessed by paw pinch reflex. After creating a burr hole through the dura with a dental drill, a lesion using a controlled cortical impactor (CCI) is used to create injury 1 mm lateral and posterior to the bregma (5.0 mm/sec at a depth of 1.0 mm).
Animals are separated into three treatment groups: 1) Sham, 2) mBI, and 3) mBI plus ghrelin variant. A variety of doses can be tested depending upon the particular ghrelin variant. For example, 1 to 50 μg at one or more time points. As one example, treatment with subcutaneous ghrelin variant: 1 dose of 10 μg following mBI and additional dose 10 μg 1 hour after. Brain tissue is harvested at 2-8 hours, preferably about 6 hours post-injury. […] The fluorescence is then measured (AFU), higher intensity means greater oxidative burst and, therefore greater concentration or amount of ROS. […] Oxidative burst, which is a marker for ROS, can be measured by respiratory burst using flow cytometry (e.g., FL1 channel with 488-nm laser).

Sequence of GHS-R (Q92847 whole entry): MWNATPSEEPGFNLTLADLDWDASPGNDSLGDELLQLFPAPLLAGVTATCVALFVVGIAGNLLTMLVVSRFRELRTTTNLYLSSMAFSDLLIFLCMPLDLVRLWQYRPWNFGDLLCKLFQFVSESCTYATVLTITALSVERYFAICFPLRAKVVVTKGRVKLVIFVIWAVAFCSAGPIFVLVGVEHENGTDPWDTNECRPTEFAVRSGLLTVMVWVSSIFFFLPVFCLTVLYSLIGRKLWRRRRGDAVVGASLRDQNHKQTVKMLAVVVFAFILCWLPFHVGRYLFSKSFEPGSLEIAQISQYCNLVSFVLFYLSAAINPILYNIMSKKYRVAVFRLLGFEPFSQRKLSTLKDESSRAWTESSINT

In the case of CCCCCCCCOC[C@H](NC(=O)CCCCN)C(=O)N[C@@H](Cc1ccccc1)C(=O)N[C@@H](CC(C)C)C(=O)NCCN [5-aminopentanoyl-Ser(Octyl)-Phe-Leu-aminoethylamide], the ghrelin activity [1] is given as “potent ghrelin activity”.

Compound CCN(CC)CCCS(=O)(=O)N[C@H](CCc1ccccc1)c1nc(-c2ccc3nccn3c2)n[nH]1 [Compound 134, 3-Diethylamino-propane-1-sulfonic acid {(R)-1-[5-(1H-imidazo[1,2,-a]pyridin-6-yl)-2H-[1,2,4]triazol-3-yl]-3-phenyl-propyl}-amide] has a Ki [2] of 100 to 500 nM.

In the case of C=CC[C@]12CCCN1C(=O)CNC2=O [NNZ-2591, cyclo-L-glycyl-L-2-allylproline], the “neuroprotection after ischemic brain injury” value [3] is listed as “neuroprotective” and the motor function [4] is listed as “improves motor function”.

With Ghrelin (GSSFLSPEHQRVQQRKESKKPPAKLQPR) the “Oxidative burst as quantified by Arbitrary Fluorescence Units (AFU)” value [5] was “reduced the oxidative burst compared to mBI”.
